{"source": "patent US20230096528A1", "about": "“Pharmaceutical Composition for Treatment or Prevention of Multiple Inflammatory disorders” (priority 2019, published 2023)", "key": {"[1]": {"test_system": "leptin-deficient (ob/ob) mice", "test": "Denatonium acetate on body weight in leptin-deficient (ob/ob) mice (Example 1)", "assay_type": "in vivo", "method": "This example describes an in vivo study of denatonium acetate on body weight in leptin-deficient (ob/ob) mice. Adult leptin-deficient mice (homozygote, ob/ob mice) fed with high-fat diet. There was a vehicle control group (15 mice) that were treated with distilled water by gavage BID. […] Body weights and body weight changes were determined at days 1, 3, 7, 10, 14, 21, 24 and 28. Food intake was determined on days 3, 7, 10, 14, 17, 21, […] and 28. On day 28 blood samples were taken for cytokine analysis, HbA1c, HDL, LDL, insulin, and bile acids."}, "[2]": {"test_system": "mouse peritoneum macrophages", "test": "LPS-stimulated mouse peritoneal macrophages, cytokine analysis (Example 5)", "assay_type": "cell-based, mice", "method": "This example provides an in vivo study to determine the effect of DA on mouse peritoneum macrophages. Peritoneal exudates were obtained from Balb/c female mice by lavage 4 days after an intraperitoneal injection of 4 ml sterile 4% thioglycollate broth. After washing with RPMI 1640 medium, the cell suspensions were centrifuged at 800 g at 4° C. for 5 min. The red blood cells were eliminated by ACK buffer and the cells were washed and resuspended in RPMI 1640 supplemented with 10% inactivated FBS, 10 mM HEPES, 2 mM glutamine, and 100 U/ml penicillin-[…] streptomycin. The peritoneal macrophages were plated in 24 well tissue culture plate (2×10^5 cells/mL/well) at 37° C. in a 5% CO2 humidified atmosphere. Macrophages were precultured in serum-free RPMI 1640 medium for 24 h to reduce mitogenic effects. Macrophages were pretreated with various concentrations of DA for 1 h prior to LPS treatment and stimulated with LPS (100 ng/mL) for 24 h. Treatment groups were: [table]"}, "diet-induced (DIO) mice": {"test_system": "diet-induced (DIO) mice", "test": "Body weight study in diet-induced (DIO) mice (Example 9)", "assay_type": "in vivo, C57BL/6NTac mice", "settings": "DA 92.4 mg/kg gavage BID, vs vehicle"}, "[3]": {"settings": "23.1 mg/kg BID gavage, vs vehicle"}, "[4]": {"settings": "23.1 mg/kg BID gavage, vs vehicle, no statistically significant difference"}}}
{"smiles": "CC(=O)[O-].CC[N+](CC)(CC(=O)Nc1c(C)cccc1C)Cc1ccccc1", "note": "[DA, denatonium acetate]", "values": [{"measurement": "Blood HDL level at day 28", "setting": "[1]; [3]", "value": "statistically significant decrease"}, {"measurement": "Blood HbA1c levels at day 28", "setting": "[1]; [3]", "value": "no statistically significant difference"}, {"measurement": "Blood LDL cholesterol levels at day 28", "setting": "[1]; [3]", "value": "no statistically significant difference"}, {"measurement": "Blood bile acid levels at day 28", "setting": "[1]; [3]", "value": "no statistically significant difference"}, {"measurement": "Blood insulin levels at day 28", "setting": "[1]; [3]", "value": "no statistically significant difference"}, {"measurement": "Blood total cholesterol level (LDL plus HDL) at day 28", "setting": "[1]; [3]", "value": "almost significant decrease"}, {"measurement": "Body weight change at day 28", "setting": "[1]; [3]", "value": "no statistically significant difference"}, {"measurement": "Cumulative food consumption over 28 days", "setting": "[1]; [3]", "value": "no statistically significant difference"}, {"measurement": "Fasting blood glucose level at day 28", "setting": "[1]; [3]", "value": "no statistically significant difference"}, {"measurement": "GM-CSF in blood at day 28", "setting": "[1]; [3]", "value": "significant decreases"}, {"measurement": "IFNγ in blood at day 28", "setting": "[1]; [3]", "value": "significant decreases"}, {"measurement": "IL-5 in blood at day 28", "setting": "[1]; [3]", "value": "significant decreases"}, {"measurement": "IL-10 in blood at day 28", "setting": "[1]; [3]", "value": "significant decreases"}, {"measurement": "IL-12 in blood at day 28", "setting": "[1]; [3]", "value": "significant decreases"}, {"measurement": "KC/CXCL1 in blood at day 28", "setting": "[1]; [3]", "value": "significant decreases"}, {"measurement": "M-CSF in blood at day 28", "setting": "[1]; [3]", "value": "significant decreases"}, {"measurement": "Change in granulocyte number, pre-dose to day 28", "setting": "[1]; [4]", "value": "trend of increasing change"}, {"measurement": "Change in lymphocyte and white blood cell numbers and percentage, pre-dose to day 28", "setting": "[1]; [4]", "value": "trend of increasing change"}, {"measurement": "Change in monocyte number and percentage, pre-dose to day 28", "setting": "[1]; [4]", "value": "trend of increasing change"}, {"measurement": "Average daily individual food intake", "setting": "[1]; 28 days, DA vs vehicle", "value": "no difference"}, {"measurement": "Body weight after treatment for 28 days", "setting": "[1]; compared to vehicle-treated controls", "value": "noticeable body weight decrease"}, {"measurement": "GM-CSF: Significance @24 hour LPS incubation", "setting": "[2]; DA 1 μM", "value": "No sig"}, {"measurement": "IFNγ: Significance @24 hour LPS incubation", "setting": "[2]; DA 1 μM", "value": "No sig"}, {"measurement": "IL-1α: Significance @24 hour LPS incubation", "setting": "[2]; DA 1 μM", "value": "No sig"}, {"measurement": "IL-1β: Significance @24 hour LPS incubation", "setting": "[2]; DA 1 μM", "value": "No sig"}, {"measurement": "IL-2: Significance @24 hour LPS incubation", "setting": "[2]; DA 1 μM", "value": "No sig"}, {"measurement": "IL-4: Significance @24 hour LPS incubation", "setting": "[2]; DA 1 μM", "value": "No sig"}, {"measurement": "IL-6: Significance @24 hour LPS incubation", "setting": "[2]; DA 1 μM", "value": "No sig"}, {"measurement": "IL-7: Significance @24 hour LPS incubation", "setting": "[2]; DA 1 μM", "value": "No sig"}, {"measurement": "IL-10: Significance @24 hour LPS incubation", "setting": "[2]; DA 1 μM", "value": "No sig"}, {"measurement": "IL-12 (p70): Significance @24 hour LPS incubation", "setting": "[2]; DA 1 μM", "value": "No sig"}, {"measurement": "IL-13: Significance @24 hour LPS incubation", "setting": "[2]; DA 1 μM", "value": "No sig"}, {"measurement": "IL-17A: Significance @24 hour LPS incubation", "setting": "[2]; DA 1 μM", "value": "No sig"}, {"measurement": "KC/CXCL1: Significance @24 hour LPS incubation", "setting": "[2]; DA 1 μM", "value": "No sig"}, {"measurement": "LIX: Significance @24 hour LPS incubation", "setting": "[2]; DA 1 μM", "value": "No sig"}, {"measurement": "MCP-1: Significance @24 hour LPS incubation", "setting": "[2]; DA 1 μM", "value": "No sig"}, {"measurement": "MIP-2: Significance @24 hour LPS incubation", "setting": "[2]; DA 1 μM", "value": "No sig"}, {"measurement": "TNF-α: Significance @24 hour LPS incubation", "setting": "[2]; DA 1 μM", "value": "No sig"}, {"measurement": "GM-CSF: Significance @24 hour LPS incubation", "setting": "[2]; DA 10 μM", "value": "no sig"}, {"measurement": "IFNγ: Significance @24 hour LPS incubation", "setting": "[2]; DA 10 μM", "value": "no sig"}, {"measurement": "IL-1α: Significance @24 hour LPS incubation", "setting": "[2]; DA 10 μM", "value": "no sig"}, {"measurement": "IL-1β: Significance @24 hour LPS incubation", "setting": "[2]; DA 10 μM", "value": "no sig"}, {"measurement": "IL-2: Significance @24 hour LPS incubation", "setting": "[2]; DA 10 μM", "value": "no sig"}, {"measurement": "IL-4: Significance @24 hour LPS incubation", "setting": "[2]; DA 10 μM", "value": "no sig"}, {"measurement": "IL-6: Significance @24 hour LPS incubation", "setting": "[2]; DA 10 μM", "value": "no sig"}, {"measurement": "IL-7: Significance @24 hour LPS incubation", "setting": "[2]; DA 10 μM", "value": "no sig"}, {"measurement": "IL-10: Significance @24 hour LPS incubation", "setting": "[2]; DA 10 μM", "value": "no sig"}, {"measurement": "IL-12 (p70): Significance @24 hour LPS incubation", "setting": "[2]; DA 10 μM", "value": "no sig"}, {"measurement": "IL-13: Significance @24 hour LPS incubation", "setting": "[2]; DA 10 μM", "value": "no sig"}, {"measurement": "IL-17A: Significance @24 hour LPS incubation", "setting": "[2]; DA 10 μM", "value": "no sig"}, {"measurement": "KC/CXCL1: Significance @24 hour LPS incubation", "setting": "[2]; DA 10 μM", "value": "no sig"}, {"measurement": "LIX: Significance @24 hour LPS incubation", "setting": "[2]; DA 10 μM", "value": "no sig"}, {"measurement": "MCP-1: Significance @24 hour LPS incubation", "setting": "[2]; DA 10 μM", "value": "no sig"}, {"measurement": "MIP-2: Significance @24 hour LPS incubation", "setting": "[2]; DA 10 μM", "value": "no sig"}, {"measurement": "TNF-α: Significance @24 hour LPS incubation", "setting": "[2]; DA 10 μM", "value": "no sig"}, {"measurement": "GM-CSF: Significance @24 hour LPS incubation", "setting": "[2]; DA 100 μM", "value": "no sig"}, {"measurement": "IFNγ: Significance @24 hour LPS incubation", "setting": "[2]; DA 100 μM", "value": "no sig"}, {"measurement": "IL-1α: Significance @24 hour LPS incubation", "setting": "[2]; DA 100 μM", "value": "no sig"}, {"measurement": "IL-1β: Significance @24 hour LPS incubation", "setting": "[2]; DA 100 μM", "value": "no sig"}, {"measurement": "IL-2: Significance @24 hour LPS incubation", "setting": "[2]; DA 100 μM", "value": "no sig"}, {"measurement": "IL-4: Significance @24 hour LPS incubation", "setting": "[2]; DA 100 μM", "value": "no sig"}, {"measurement": "IL-6: Significance @24 hour LPS incubation", "setting": "[2]; DA 100 μM", "value": "no sig"}, {"measurement": "IL-7: Significance @24 hour LPS incubation", "setting": "[2]; DA 100 μM", "value": "no sig"}, {"measurement": "IL-10: Significance @24 hour LPS incubation", "setting": "[2]; DA 100 μM", "value": "no sig"}, {"measurement": "IL-12 (p70): Significance @24 hour LPS incubation", "setting": "[2]; DA 100 μM", "value": "no sig"}, {"measurement": "IL-13: Significance @24 hour LPS incubation", "setting": "[2]; DA 100 μM", "value": "no sig"}, {"measurement": "IL-17A: Significance @24 hour LPS incubation", "setting": "[2]; DA 100 μM", "value": "no sig"}, {"measurement": "KC/CXCL1: Significance @24 hour LPS incubation", "setting": "[2]; DA 100 μM", "value": "no sig"}, {"measurement": "LIX: Significance @24 hour LPS incubation", "setting": "[2]; DA 100 μM", "value": "no sig"}, {"measurement": "MCP-1: Significance @24 hour LPS incubation", "setting": "[2]; DA 100 μM", "value": "no sig"}, {"measurement": "MIP-2: Significance @24 hour LPS incubation", "setting": "[2]; DA 100 μM", "value": "no sig"}, {"measurement": "TNF-α: Significance @24 hour LPS incubation", "setting": "[2]; DA 100 μM", "value": "no sig"}, {"measurement": "Daily food intake at Day 14", "setting": "diet-induced (DIO) mice", "value": "significantly reduced"}]}
